The structures appear in SMILES notation.

Data set [1] can be described thus: double amidation of dimethyl bis(oxyacetate) diester with alpha,omega-diamine (aminolysis of methyl ester, no additive), 10 kbar, 24 h. The settings on record: the molecule shown is the open-chain precursor, MeOH, 30.0 mM, 25.0 °C, 2 steps, scale: mol% diamide.
Data set [2] can be described thus: double amidation of dimethyl bis(oxyacetate) diester with alpha,omega-diamine (aminolysis of methyl ester, no additive), 1 bar, 168 h. To be noted: the molecule shown is the open-chain precursor, MeOH, 30.0 mM, 25.0 °C, 2 steps, scale: mol% diamide.

For the compound `COC(=O)COc1ccccc1OCC(=O)NCCOCCN` [3{1,1}], the results for the ring closure, monomer to dimer in data set [1] (15-membered ring) and in data set [2] (15-membered ring) were 95 and 99.5, respectively.

As for `COC(=O)COc1ccccc1OCC(=O)NCCCOCCCCOCCCN` [3{1,2}], the ring closure, monomer to dimer in data set [1] (22-membered ring) came to 78; in data set [2] (22-membered ring) it was 85.

As for `COC(=O)COc1ccccc1OCC(=O)NCCCOCCOCCOCCCN` [3{1,3}], the ring closure, monomer to dimer in data set [1] (23-membered ring) was found to be 76; in data set [2] (23-membered ring) it was 88.

As to `COC(=O)COc1cccc(OCC(=O)NCCOCCN)c1` [3{2,1}], the ring closure, monomer to dimer in data set [1] (16-membered ring) worked out at 68.5; in data set [2] (16-membered ring), 77.

In the case of `COC(=O)COc1cccc(OCC(=O)NCCCOCCCCOCCCN)c1` [3{2,2}], the figures for the ring closure, monomer to dimer in data set [1] (23-membered ring) and in data set [2] (23-membered ring) were 76.5 and 85, respectively.

With `COC(=O)COc1cccc(OCC(=O)NCCCOCCOCCOCCCN)c1` [3{2,3}], the results for the ring closure, monomer to dimer in data set [1] (24-membered ring) and in data set [2] (24-membered ring) were 78 and 95, respectively.

Turning to `COC(=O)COc1ccc(OCC(=O)NCCOCCN)cc1` [3{3,1}], the ring closure, monomer to dimer in data set [1] (17-membered ring) came out at 16.5; in data set [2] (17-membered ring) it was 33.

Consider `COC(=O)COc1ccc(OCC(=O)NCCCOCCCCOCCCN)cc1` [3{3,2}], for which the ring closure, monomer to dimer in data set [1] (24-membered ring) was found to be 81; in data set [2] (24-membered ring), 85.

In the case of `COC(=O)COc1ccc(OCC(=O)NCCCOCCOCCOCCCN)cc1` [3{3,3}], the figures for the ring closure, monomer to dimer in data set [1] (25-membered ring) and in data set [2] (25-membered ring) were 79 and 89, respectively.

Source of the values: publication PMC7588042.
